Measurements: US7276603B2, “Benzofuranyl-and benzothienyl-piperazinyl quinolines and methods of their use” (Wyeth, priority 2003, dated 2007)

Columns and labels:
5-HT transporter = 5-HT transporter (Rattus norvegicus, UniProt P31652); assay: Rat Brain 3H-Paroxetine Binding Assay (RB 5HT Transporter); details: rat frontal cortical membranes; 3H-paroxetine 0.1 nM, 60 min, 25° C.
Excerpt: Rat Brain ^3H-Paroxetine Binding Assay (RB 5HT Transporter):
This assay was used to determine a compound's affinity of the 5-HT transporter.
All reactions were terminated by the addition of ice cold Tris buffer followed by rapid filtration using a Tom Tech filtration device to separate bound from free ^3H-paroxetine.

human 5-HT1A receptors = target: T1, human 5-HT1A receptors (Homo sapiens, UniProt P08908); assay: displacement of [3H] 8-OH-DPAT from the 5-HT1A serotonin receptor; type: binding; details: CHO cells stably transfected with human 5-HT1A receptors
T1 construct: expressed in transfected cells; host or cells: CHO cells
T1 sequence (P08908 1-422): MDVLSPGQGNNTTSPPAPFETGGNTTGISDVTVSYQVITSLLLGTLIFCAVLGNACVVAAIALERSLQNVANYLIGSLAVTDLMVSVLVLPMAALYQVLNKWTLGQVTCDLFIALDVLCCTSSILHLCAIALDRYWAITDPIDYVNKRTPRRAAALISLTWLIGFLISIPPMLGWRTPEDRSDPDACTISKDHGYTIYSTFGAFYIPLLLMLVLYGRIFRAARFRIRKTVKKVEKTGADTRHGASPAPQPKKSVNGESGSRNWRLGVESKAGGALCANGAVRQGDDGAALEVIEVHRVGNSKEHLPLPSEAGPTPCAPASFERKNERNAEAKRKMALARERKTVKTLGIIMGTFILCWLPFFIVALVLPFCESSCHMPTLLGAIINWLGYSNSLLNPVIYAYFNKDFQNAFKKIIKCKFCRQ

Sequence of 5-HT transporter (P31652 whole entry): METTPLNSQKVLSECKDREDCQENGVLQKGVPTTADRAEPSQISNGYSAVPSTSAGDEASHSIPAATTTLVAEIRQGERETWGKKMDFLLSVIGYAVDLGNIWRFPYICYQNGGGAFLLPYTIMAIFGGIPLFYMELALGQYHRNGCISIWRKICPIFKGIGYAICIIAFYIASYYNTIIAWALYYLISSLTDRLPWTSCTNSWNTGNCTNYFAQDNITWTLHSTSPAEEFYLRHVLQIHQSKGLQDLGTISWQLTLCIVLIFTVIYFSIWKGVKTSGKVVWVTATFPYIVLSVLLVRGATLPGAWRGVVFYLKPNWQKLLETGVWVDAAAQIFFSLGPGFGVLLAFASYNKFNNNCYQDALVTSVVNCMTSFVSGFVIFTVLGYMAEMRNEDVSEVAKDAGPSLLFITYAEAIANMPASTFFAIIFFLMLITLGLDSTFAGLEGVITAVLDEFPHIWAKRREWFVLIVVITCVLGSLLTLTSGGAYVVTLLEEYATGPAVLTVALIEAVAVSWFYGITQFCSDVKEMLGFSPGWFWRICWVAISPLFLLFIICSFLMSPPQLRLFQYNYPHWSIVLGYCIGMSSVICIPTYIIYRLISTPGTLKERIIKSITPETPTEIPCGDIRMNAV

With `COc1cc(N2CCN([C@H]3CC[C@@H](c4csc5ccccc54)CC3)CC2)c2ncccc2c1` [Compound 45, 8-{4-[4-cis(1-benzothien-3-yl)cyclohexyl]-1-piperazinyl}-6-methoxyquinoline] the Ki (5-HT transporter) was 259 nM, the Ki (human 5-HT1A receptors) was 1.73 nM and the melting point was 148 to 150 °C.

`Fc1cc(N2CCN([C@H]3CC[C@H](c4csc5ccccc54)CC3)CC2)c2ncccc2c1` [Compound 44, 8-{4-[4-trans(1-benzothien-3-yl)cyclohexyl]-1-piperazinyl}-6-fluoroquinoline] showed a Ki (5-HT transporter) of 380 nM, a Ki (human 5-HT1A receptors) of 130 nM and a melting point of 195 °C.

`Clc1cc(N2CCN([C@H]3CC[C@H](c4csc5ccccc54)CC3)CC2)c2ncccc2c1` [Compound 42, 8-{4-[4-trans(1-benzothien-3-yl)cyclohexyl]-1-piperazinyl}-6-chloroquinoline] showed a Ki (5-HT transporter) of 157 nM, a Ki (human 5-HT1A receptors) of 140 nM and a melting point of 143 to 144 °C.

With `Fc1cc(N2CCN([C@H]3CC[C@@H](c4csc5ccccc54)CC3)CC2)c2ncccc2c1` [Compound 43, 8-{4-[4-cis(1-benzothien-3-yl)cyclohexyl]-1-piperazinyl}-6-fluoroquinoline] the Ki (5-HT transporter) was 311 nM, the Ki (human 5-HT1A receptors) was 1.17 nM and the melting point was 147 to 151 °C.

Work on `COc1cc(N2CCN([C@H]3CC[C@@H](c4cc5ccccc5s4)CC3)CC2)c2ncccc2c1` [Compound 70] yielded a Ki (5-HT transporter) of 47 nM, a Ki (human 5-HT1A receptors) of 1550 nM and a melting point of 184 to 186 °C.

In the case of `Fc1ccc(N2CCN([C@H]3CC[C@@H](c4coc5ccccc54)CC3)CC2)c2ncccc12` [Compound 53, 8-{4-[4-cis(1-benzofuran-3-yl)cyclohexyl]-1-piperazinyl}-5-fluoroquinoline], the Ki (5-HT transporter) is reported as 208 nM, the Ki (human 5-HT1A receptors) is reported as 1.74 nM and the melting point is reported as 142 to 144 °C.

Compound `Fc1cc(N2CCN([C@H]3CC[C@H](c4coc5ccccc54)CC3)CC2)c2ncccc2c1` [Compound 56, 8-{4-[4-trans(1-benzofuran-3-yl)cyclohexyl]-1-piperazinyl}-6-fluoroquinoline] has a Ki (5-HT transporter) of 77 nM, a Ki (human 5-HT1A receptors) of 16.6 nM and a melting point of 195 to 197 °C.

`COc1ccc2occ([C@H]3CC[C@H](N4CCN(c5cc(F)cc6cccnc56)CC4)CC3)c2c1` [Compound 68, 6-fluoro-8-{4-[4-trans(5-methoxy-1-benzofuran-3-yl)cyclohexyl]piperazin-1-yl}quinoline] showed a Ki (5-HT transporter) of 121 nM, a Ki (human 5-HT1A receptors) of 0.22 nM and a melting point of 152 to 155 °C.

With `COc1cccc2c1occ2[C@H]1CC[C@H](N2CCN(c3cccc4cccnc34)CC2)CC1` [Compound 62, 8-{4-[4-trans(7-methoxy-1-benzofuran-3-yl)cyclohexyl]-1-piperazinyl}quinoline] the Ki (5-HT transporter) was 46 nM, the Ki (human 5-HT1A receptors) was 0.26 nM and the melting point was 195 to 197 °C.

With `COc1cccc2c1occ2[C@H]1CC[C@H](N2CCN(c3cc(F)cc4cccnc34)CC2)CC1` [Compound 60, 6-fluoro-8-{4-[4-trans(7-methoxy-1-benzofuran-3-yl)cyclohexyl]-1-piperazinyl}quinoline] the Ki (5-HT transporter) was 50 nM, the Ki (human 5-HT1A receptors) was 0.16 nM and the melting point was 195 to 197 °C.

With `COc1cccc2c1occ2[C@H]1CC[C@@H](N2CCN(c3cc(F)cc4cccnc34)CC2)CC1` [Compound 59, 6-fluoro-8-{4-[4-cis(7-methoxy-1-benzofuran-3-yl)cyclohexyl]-1-piperazinyl}quinoline] the Ki (5-HT transporter) was 48 nM, the Ki (human 5-HT1A receptors) was 1.93 nM and the melting point was 75 to 83 °C.

For `COc1ccc2occ(CCN3CCN(c4cccc5cccnc45)CC3)c2c1` [Compound 21, 8-{4-[2-(5-methoxy-1-benzofuran-3-yl)ethyl]-1-piperazinyl}-quinoline], the Ki (5-HT transporter) was 7.25 nM, the Ki (human 5-HT1A receptors) was 2.83 nM and the melting point was 78 °C.
